Assay results reported in patent EP2301627A1, “Novel antimalarial 3-azabicyclo[3.2.2]nonane derivatives” (University of Graz, priority 2009, dated 2011).
Values joined by “and” are separate entries in the source; they are usually repeats but may differ in a detail not shown here. Identical values can stand only once. Like-named read-outs stand apart in the source and are kept apart here. Blank lines part the entries; values can stand above or below the compound they belong to.

What was measured:
[1] = system: K1 strain of P. falciparum (resistant to chloroquine and pyrimethamine); assay: in vitro screening against Plasmodium falciparum, [3H]-hypoxanthine incorporation assay; assay type: cell-based; details: read-out: IC50 P.falc.
Description: Antiplasmodial activity is determined using the K1 strain of P. falciparum (resistant to chloroquine and pyrimethamine). A modification of the [^3H]-hypoxanthine incorporation assay is used [Matile H, Pink JRL. in: Lefkovits I. and Pernis B. (Eds.). Immunological Methods, Academic Press, San Diego, 1990, 221-234.]. Briefly, infected human red blood cells in RPMI 1640 medium with 5% Albumax are exposed to serial drug dilutions in microtiter plates for 48 hours. Viability is assessed by measuring the incorporation of [^3H]-hypoxanthine by liquid scintillation counting 24 hours after the addition of the radiolabel. The counts are expressed as percentage of the control cultures, sigmoidal inhibition curves are drawn and IC50 values calculated.

P. berghei ANKA strain = assay: in vivo screening against Plasmodium berghei in mice; details: for MSD P. berghei: mean survival day; for Activity %: percent reduction of parasitemia vs control
Description: • Method of infection of animals: • Male mice (Fü albino; specific pathogen free) weighing 20± 2g are infected intravenously with 2x10^7 P. berghei ANKA strain-infected erythrocytes from donor mice on day 0 of the experiment. […] Parasitemia is determined microscopically by counting 1000 red blood cells. • For low parasitemias (<1%) 2000 rbc's have to be counted. The difference between the mean value for the control group (taken as 100%) and that for each experimental group is calculated and expressed as percent reduction (=activity). • The mean survival day (MSD, in days) is recorded as well as observations concerning side effects of the drug.

L-6 cells = assay: Cytotoxicity, same Alamar Blue assay with L-6 cells; assay type: cell-based; details: Rattus norvegicus
Description: Serial drug dilutions are added to the wells. Then 50 µl of trypanosome suspension (T. b. rhodesiense STIB 900) is added to each well and the plate incubated at 37°C under a 5% CO2 atmosphere for 72 hours. Alamar Blue (10 µl) is then added to each well and incubation continued for a further 2-4 hours. […] Fluorescence development is expressed as percentage of the control, and IC50 values determined. Cytotoxicity is assessed using the same assay and L-6 cells.

[2] = system: T. b. rhodesiense STIB 900; assay: in vitro screening against Trypanosoma brucei rhodesiense, Alamar Blue assay; assay type: cell-based; details: read-out: IC50 T.rho.
Description: Minimum Essential Medium (50 µl) supplemented according to Baltz et al. [Baltz T, Baltz D, Giroud C, Crockett J. EMBO J., 1985, 4: 1273-1277] with 2-mercaptoethanol and 15% heat-inactivated horse serum is added to each well of a 96-well microtiter plate. Serial drug dilutions are added to the wells. Then 50 µl of trypanosome suspension (T. b. rhodesiense STIB 900) is added to each well and the plate incubated at 37°C under a 5% CO2 atmosphere for 72 hours. Alamar Blue (10 µl) is then added to each well and incubation continued for a further 2-4 hours. The plate is then read with a Millipore Cytofluor 2300 using an excitation wavelength of 530 nm and emission wavelength of 590 nm [Räz B, Iten M, Grether-Bühler Y, Kaminsky R, Brun R. Acta Trop., 1997, 68: 139-147]. Fluorescence development is expressed as percentage of the control, and IC50 values determined. Cytotoxicity is assessed using the same assay and L-6 cells.

[3] = Erythrocyte, K1 strain, infected human red blood cells, 48 hours drug exposure
[4] = L6, L-6 cells, read-out: IC50 Cytox

SMILES: c1ccc([C@@H]2CC3(N4CCCC4)CNCC2[C@H](c2ccccc2)C3)cc1 (racemic) [Example 1, (6RS,9RS)-(±)-6,9-Diphenyl-1-pyrrolidino-3-azabicyclo[3.2.2]nonane]
IC50 [1, 3]: 95 nM
MSD P. berghei (P. berghei ANKA strain; ip 4x10mg/kg): 4 days
Activity % (P. berghei ANKA strain; ip 4x10mg/kg): 25.06%
MSD P. berghei (P. berghei ANKA strain; ip 4x20mg/kg): 10 days
Activity % (P. berghei ANKA strain; ip 4x20mg/kg): 60.11%
MSD P. berghei (P. berghei ANKA strain; ip 4x50mg/kg): 12.3 days and 15 days
Activity % (P. berghei ANKA strain; ip 4x50mg/kg): 94.32% and 94.77%
MSD P. berghei (P. berghei ANKA strain; po 1x100mg/kg): 12 days
Activity % (P. berghei ANKA strain; po 1x100mg/kg): 70.52%
side effects of the drug (P. berghei ANKA strain; po 1x200mg/kg): toxic
MSD P. berghei (P. berghei ANKA strain; po 1x200mg/kg): 16 days
Activity % (P. berghei ANKA strain; po 1x200mg/kg): 66.13%
MSD P. berghei (P. berghei ANKA strain; po 4x100mg/kg): 18.6 days
Activity % (P. berghei ANKA strain; po 4x100mg/kg): 97.7%
IC50 (L-6 cells; [4]): 72.9 µM
IC50 ([2]; STIB 900, 72 hours incubation): 1000 nM

SMILES: C[C@@H]1CC[C@H]2[C@@H](C)C(=O)O[C@@H]3O[C@@]4(C)CC[C@@H]1[C@]32OO4 [Artemisinin]
IC50 [1, 3]: 6.4 nM
IC50 (L-6 cells; [4]): 450 µM

SMILES: CCN(CC)CCCC(C)Nc1ccnc2cc(Cl)ccc12 (stereo not shown) [Chloroquine, reference compound]
IC50 ([1]; K1, Erythrocyte, 48 h): 120 nM
MSD P. berghei (P. berghei ANKA strain; ip 4x10mg/kg): 20 days
Activity % (P. berghei ANKA strain; ip 4x10mg/kg): 99.6%
MSD P. berghei (P. berghei ANKA strain; po 4x10mg/kg): 20 days
Activity % (P. berghei ANKA strain; po 4x10mg/kg): 99.6%
IC50 (L-6 cells; L6, read-out: IC50 Cytox): 188 µM

SMILES: Nc1nc(N)nc(Nc2ccc([As]3SCC(CO)S3)cc2)n1 (stereo not shown) [Melarsoprol]
IC50 (L-6 cells; L6, read-out: IC50 Cytox): 7.78 µM
IC50 ([2]; 72 h): 3.9 nM

IC50 ([2]; STIB 900, 72 hours incubation): 7.5 nM
SMILES: N=C(N)c1ccc(OCCCCCOc2ccc(C(=N)N)cc2)cc1 [Pentamidine]
IC50 (L-6 cells; [4]): 4720 µM
